We go through 3 compounds from US20120164230A1, “Soluble Nanoparticles as Delivery Systems for Prodrugs” (priority 2007, published 2012).

Data set [1] relates to NTera-2 cells. The data set can be described thus: Platinum concentration of cell extracts (cytosolic and nuclear fractions) by AAS. The data set is classed as cell-based, human. The conditions noted are these: 1 μM platinum, 3 h incubation. On the procedure:
In order to investigate the mechanism by which the SWNTs transport Pt(IV) compounds into cells and release them once inside we devised a strategy to track their intracellular location.
Cell Extract Preparation and Analysis. NTera-2 cells were grown to >90% confluence in 175 cm^2 flasks. These cells were treated separately with 1 μM concentrations of cisplatin, c,c,t-[Pt(NH3)2Cl2(OEt)(O2CCH2CH2CO2H)], and SWNT-Pt(IV) and subsequently incubated for three h at 37° C. The cells were washed thrice with PBS and released by trypsinization into PBS. The cell solutions were centrifuged at 800×g for 10 min and the cell pellets resuspended in 100 μL of ice-cold lysis buffer (1.0 mM DTT (dithiothreitol), 1.0 mM PMSF (phenylmethanesulphonylfluoride), 10 mM KCl, 10 mM MgCl2, pH 7.5) for 15 min. The cells were centrifuged again and the pellets resuspended in 40 μL of ice-cold lysis buffer. The cell membranes were lysed by 10 strokes of a 28 ga. syringe. The resulting suspension was centrifuged at 11,000×g for 20 min and the supernatant was collected as the cytosolic fraction of the cells. […] The lysate was shaken at 1000 rpm for 45 min at […] and then centrifuged at 20,000×g for 10 min at 4° C. The supernatant was collected as the nuclear fraction. The platinum concentration of all fractions was determined by AAS. The protein concentration for each fraction was determined by the bicinchoninic acid (BCA) assay and the total platinum concentration was expressed as nanograms of platinum per microgram of protein (Table 1).

For data set [2], the system named is NTera-2 cells. The data set can be described thus: MTT cell proliferation / cytotoxicity assay. The data set is classed as cell-based, human. As to the method: In order to evaluate the feasibility of this method for delivering a toxic dose of platinum, cytotoxicity assays of SWNT-Pt(IV) were conducted using the testicular carcinoma cell line NTera-2. Example 3 below describes these experiments, in which the MTT assay was used to determine cell viability following treatment for four days with either the free platinum(IV) complex 2 or with the SWNT-tethered analog (FIG. 2). Compared to cis-[Pt(NH3)2Cl2] (IC50=0.05 μM) the cytotoxicity of the asymmetrically substituted platinum(IV) compound 2 is insignificant (IC50>>0.5 mM). […] Without wishing to be bound to any particular theory, it is thought that this increase is due to the two-fold increase in uptake of Pt relative to free cisplatin.
Cell Culture. Cells from the human testicular cancer line NTera-2 were incubated at 37° C. in 5% CO2 and grown in DMEM (Dulbecco's Modified Eagle's Medium) medium supplemented with 10% fetal bovine serum and 1% penicillin/streptomycin. Cells were passaged every 3 to 4 days and reseeded from frozen stocks after reaching passage number 20.
Cell Proliferation Assay. Ntera-2cells were seeded into 96 well plates at a confluence of 1000 cells per well and incubated for 24 h. The cells were then treated with either cisplatin, compound 1, compound 2, or SWNT-Pt(IV) and incubated for 96 h. The cells were then treated with 20 μL of 3-(4,5-dimethylthiazol-2-yl)-2,5-diphenyltetrazolium bromide (MTT) (5 mg/mL in PBS) and incubated for 5 h. The medium was removed, the cells were lysed with 100 μL of DMSO, and the absorbance of the purple formazan was recorded at 550 nm. The results are presented in FIG. 2, FIG. 7, FIG. 8, and FIG. 9. […] (cisplatin).

A short description of data set [3]: Cyclic voltammetry, reduction potential. The following applies: vs Ag/AgCl; for reduction potential (reduction peak) extrapolated to 0.0 mV s^-1 scan rate: pH 6.0, 0.1 M KCl phosphate buffer; for reduction potential extrapolated to 0.0 mV s^-1 scan rate: pH 7.4, 0.1 M KCl phosphate buffer. The format is physicochemical. As to the method: Each platinum complex was dissolved to a final concentration of 2.0 mM in 0.1 M aqueous KCl buffered with phosphate to either pH 6.0 or 7.4. Cyclic voltammetric (CV) measurements were performed with a model 263 EG&G Princeton Applied Research electrochemical analyzer at varying scan rates of 20-100 mV s^−1. The solvent was degassed by several freeze-pump-thaw cycles and measurements were taken under an atmosphere of argon. The working electrode was made of glassy carbon, the reference electrode was Ag/AgCl, and the counter electrode was a platinum wire. Reported potentials are extrapolated to 0.0 mV s^−1 scan rates to account for the irreversible behavior of the reduction processes.^7

For orientation: IC50 means the concentration that gives 50% inhibition.

Turning to `CC[O][Pt]([NH2])([NH2])([Cl])([Cl])[O]C(=O)CCC(=O)O` [Compound 2, c,c,t-[Pt(NH3)2Cl2(OEt)(O2CCH2CH2CO2H)]], in data set [1], the “Platinum concentration of cell extracts, Cytosolic” value is recorded as 3 Pt(ng)/protein(mg) and the “Platinum concentration of cell extracts, Nuclear” value was 6 Pt(ng)/protein(mg). Besides, in data set [2], the IC50 was greater than 500 nM and the “cytotoxicity (in words)” value is recorded as “nearly nontoxic”. In addition, in data set [3], the “reduction potential (reduction peak) extrapolated to 0.0 mV s^-1 scan rate” value is listed as −0.623 V and the “reduction potential extrapolated to 0.0 mV s^-1 scan rate” value is −0.724 V.
Consider `CC[O][Pt]([NH2])([NH2])([OH])([Cl])[Cl]` [Compound 1, c,c,t-[Pt(NH3)2Cl2(OH)(OEt)]], for which the “cytotoxicity (in words)” value in data set [2] is on record as “only toxic to cells in micromolar concentrations”. Besides, in data set [3], the “reduction potential (reduction peak) extrapolated to 0.0 mV s^-1 scan rate” value was −0.499 V and the “reduction potential extrapolated to 0.0 mV s^-1 scan rate” value was −0.604 V.
As to cis-[Pt(NH3)2Cl2] [reference compound], in data set [1], the “Platinum concentration of cell extracts, Cytosolic” value is 11 Pt(ng)/protein(mg) and the “Platinum concentration of cell extracts, Nuclear” value is reported as 14 Pt(ng)/protein(mg). In data set [2], the IC50 was 50 nM and the “cytotoxicity (in words)” value is reported as “significantly more toxic”.
